Legend:
[1] = target: T1, CDK4/CyclinD1 (Homo sapiens, UniProt P11802); assay: CDK4/CyclinD1 kinase inhibitory activity (Caliper mobility shift); format: biochemical; details: enzyme 20 nM, ATP 672 uM, 28° C. 30 min; read-out: CDK4/Cyclin D1 IC50
T1 construct: purchased ProQinase 0142-0143-1
Experimental: CDK4/CyclinD1 kinase inhibitory activity (IC50): 5 μl of various dilutions of test compound in 1× kinase buffer (20 mM HEPES, pH 7.5, 10 mM MgCl2, 2 mM DTT and 0.01% Triton X-100) was mixed with 10 μL of either CDK4/Cyclin D1 (ProQinase, 0142-0143-1 #, final concentration 20 nM in 1× Kinase buffer) or in 384 plates and incubated at room temperature for 10 min. To initiate each reaction, 10 μL of peptide solution containing fluorescently-labeled-peptide 8(5-FAM-IPTSPITTTYFFFKKK-COOH, GL, 112396 #, final concentration 3000 nM) and ATP (final concentration 672 uM for CDK4/CyclinD1) in 1×Kinase buffer was added to each of the wells containing test compound and CDK4/CyclinD1 mixture. The reaction is then allowed to proceed at 28° C. for 30 min and terminated by the addition of 25 μL stop buffer (100 mM HEPES pH 7.5, 50 mM EDTA, 0.2% Coating Reagent #3 (Perkin Elmer, 760050 #) and 0.015% Brij-35).
(§1) Following the kinase reaction, Caliper EZ reader II (Downstream voltages: −500V, Upstream voltages: −2250V, Base pressure −0.5 PSI, Screen pressure −1.2 PSI) was used to separate the phosphorylated (product) and the unphosphorylated (substrate) fluorescently-labeled peptide 8 based on their different mobility. Both substrate and product were measured and the ratio of these values were used to generate % conversion by Caliper EZ reader II. These conversion values were then transformed into % inhibition of kinase activity using the formula: % Inhibition=[(MA−X)/(MA−MI)]×100% where MA=conversion value of DMSO only controls, MI=conversion value of no enzyme controls and X=conversion value at any given compound dose. IC50 values were then calculated by plotting dose-response curves and then using the XLfit application in Excel software.

[2] = target: T2, CDK6/CyclinD3 (Homo sapiens, UniProt Q00534); assay: CDK6/CyclinD3 kinase inhibitory activity (Caliper mobility shift); format: biochemical; details: enzyme 15 nM, ATP 800 μM, 28° C. 30 min; read-out: CDK6/Cyclin D3 IC50
T2 construct: purchased Carna 04-107
Experimental: CDK6/CyclinD3 kinase inhibitory activity (IC50): 5 μl of various dilutions of test compound in 1× kinase buffer (50 mM HEPES pH 7.5, 10 mM MgCl2, 2 mM DTT and 0.01% Brij-35) was mixed with 10 μL of CDK6/CyclinD3 (Carna, 04-107 #, final concentration 15 nM in 1× Kinase buffer) in 384 plates and incubated at room temperature for 10 min. To initiate each reaction, 10 μL of peptide solution containing fluorescently-labeled -peptide 8(5-FAM-IPTSPITTTYFFFKKK-COOH, GL, 112396 #, final concentration 3000 nM) and ATP (final concentration 800 μM for CDK6/CyclinD3 in 1× Kinase buffer was added to each of the wells containing test compound and CDK6/CyclinD3. The reaction is then allowed to proceed at 28° C. for 30 min and terminated by the addition of 25 μL stop buffer (100 mM HEPES pH 7.5, 50 mM EDTA, 0.2% Coating Reagent #3 (Perkin Elmer, 760050 #) and 0.015% Brij-35).
as §1

T1 sequence (P11802 whole entry): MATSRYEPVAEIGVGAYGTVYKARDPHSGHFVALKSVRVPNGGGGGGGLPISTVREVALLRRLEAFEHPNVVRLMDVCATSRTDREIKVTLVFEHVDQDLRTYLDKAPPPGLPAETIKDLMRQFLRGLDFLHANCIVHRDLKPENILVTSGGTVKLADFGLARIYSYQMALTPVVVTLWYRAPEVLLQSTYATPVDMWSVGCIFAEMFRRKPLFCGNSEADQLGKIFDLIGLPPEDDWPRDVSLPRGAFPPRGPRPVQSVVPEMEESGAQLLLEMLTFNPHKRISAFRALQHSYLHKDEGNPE
T1 sequence (P24385 whole entry partner): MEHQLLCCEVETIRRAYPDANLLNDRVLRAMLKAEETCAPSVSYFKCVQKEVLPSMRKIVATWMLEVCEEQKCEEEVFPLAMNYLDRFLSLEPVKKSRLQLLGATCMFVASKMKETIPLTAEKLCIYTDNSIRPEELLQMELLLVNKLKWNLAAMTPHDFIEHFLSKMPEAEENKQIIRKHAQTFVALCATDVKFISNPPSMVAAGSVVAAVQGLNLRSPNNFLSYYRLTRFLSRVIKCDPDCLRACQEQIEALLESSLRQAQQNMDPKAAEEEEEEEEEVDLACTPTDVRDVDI
T2 sequence (Q00534 whole entry): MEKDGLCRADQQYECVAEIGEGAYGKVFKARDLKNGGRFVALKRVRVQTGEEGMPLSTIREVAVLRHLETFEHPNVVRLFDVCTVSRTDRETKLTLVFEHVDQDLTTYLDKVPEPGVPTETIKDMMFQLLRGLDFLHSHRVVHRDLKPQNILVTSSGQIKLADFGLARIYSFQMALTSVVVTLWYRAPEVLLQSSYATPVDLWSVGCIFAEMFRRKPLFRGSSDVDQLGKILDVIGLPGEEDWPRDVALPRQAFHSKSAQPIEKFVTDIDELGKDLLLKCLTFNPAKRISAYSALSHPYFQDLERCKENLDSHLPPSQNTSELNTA
T2 sequence (P30281 whole entry partner): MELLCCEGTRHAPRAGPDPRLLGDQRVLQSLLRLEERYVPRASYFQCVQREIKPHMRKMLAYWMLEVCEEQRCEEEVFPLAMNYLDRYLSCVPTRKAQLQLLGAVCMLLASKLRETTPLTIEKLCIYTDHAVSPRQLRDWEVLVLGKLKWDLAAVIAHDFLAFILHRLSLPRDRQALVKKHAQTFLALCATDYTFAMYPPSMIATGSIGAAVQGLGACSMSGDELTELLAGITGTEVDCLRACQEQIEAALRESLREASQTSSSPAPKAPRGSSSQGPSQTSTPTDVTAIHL

Row | IC50 [1] | IC50 [2] | SMILES
1 | < 10 nM | 100 to 1000 nM | [2H]c1nc(N[C@@H]2CCOC[C@H]2O)nc(-c2cc(F)c3nc(C)c4c(c3c2)CNC(C)(C)C4)c1F [Example 105]
2 | < 10 nM | 100 to 1000 nM | CC1(C)NCCc2cnc3c(F)cc(-c4nc(N[C@@H]5CCOC[C@H]5O)ncc4Cl)cc3c21 [Example 109]
3 | < 10 nM | 100 to 1000 nM | [2H]C1([2H])c2cnc3c(F)cc(-c4nc(N[C@@H]5CCOC[C@H]5O)ncc4F)cc3c2CNC1(C)C [Example 110]
